For data set [1] the following is noted: 223 cases in the United States, FDA memorandum 2005; cited from earlier work.
Data set [2] deals with patients with OA of the hand and knee. The data set is described as follows: Double-blind comparator clinical trial, hand and knee OA combined (Example 7). Type of data set: in vivo, human. Particulars: daily for 6 weeks. From the text: (§1) A prospective, dose ranging, double-blind, comparator clinical trial to evaluate the tolerability and efficacy of Pentabrex™, (Proteobioactives Pty Ltd, Balgowlah, NSW, Australia) compared to celecoxib, for the relief of symptoms in elderly patients with OA of the hand and knee conducted at the Subiaco Rheumatology Clinic, Subiaco, Perth, WA, Australia.
(§2) Thirty three male and female patients with symptomatic hand or knee OA were obtained from referrals sent by general medical practitioners located in Perth (Western Australia) suburbs. […] To be included in the clinical trial, patients had to be 50 years of age or older and have an OA grade of 3-4 (Kellgren J H, Lawrence J S. Radiological assessment of osteoarthrosis. Annals Rheumatic Dis.1957; 16:494-502) that had been symptomatic for at least 6 months prior to their inclusion. If a patient had pain in both knees or both hands, the more painful knee or hand was the joint used for assessment. If patients had both hand and knee OA each most painful joint was assessed separately.
(§3) Although patients were requested not to consume additional analgesics or NSAIDs over the duration of the study, if they found this to be too difficult because of the unacceptable level of pain they experienced, they were required to document the drugs and quantities they used for relief of pain in a six week daily diary that supplied with the clinical trial test package manufactured by the compounding chemist (Kingsway, Brookvale NSW 2100, Australia). Failure to complete the daily dairies over the duration of the 6 week trial and return the used blister pack to the examining clinician at the final consultation would be taken as to non-compliance with the trial protocol. The diary requirement was included as part of patient assessment for the duration of the trial because of the known non-compliance of patients taking oral medications over extended periods of time (van Berge Henegouwen MTH, van Driel H F, Kasteleijn-Nolst DGA. A patient diary as a tool to improve medicine compliance. Pharm World Sci. 1999; 21: 21-24, Farmer K C, Methods for measuring and monitoring medication regimen adherence in clinical trials and clinical practice. Clinical […]
The same clinical parameters that were determined for all patients at baseline were assessed at the final examination six weeks later. The patient's diaries and blister packs returned were also examined and the number of supplementary analgesics they consumed was recorded. Any adverse side effects noted over the duration of the trial were also recorded. […]

For data set [3], the system named is patients with knee OA. Nature of the data set: Double-blind comparator clinical trial Pentabrex vs celecoxib, knee OA (Example 7). Type of data set: in vivo, human.
Excerpt: as §1, §2
(§4) Patients with rheumatoid arthritis or any other rheumatic condition that required the continuous administration of a second line rheumatic agent such as methotrexate, steroid or cytokine antagonist, had current bleeding diathesis or were receiving treatment with blood thinners (such as warfarin), or had any significant medical conditions involving the liver, kidney, or their motor or nervous systems were excluded from the trial.
as §3
For patients with OA of the knee joints their VAS pain scores were determined for their pain at rest, pain on walking and early morning stiffness. […]

For data set [4], the system named is patients with hand OA. The data set is described as follows: Double-blind comparator clinical trial Pentabrex vs celecoxib, hand OA (Example 7). It is filed as in vivo, human.
Excerpt: as §1, §2, §4, §3
At the commencement of the trial details of the patient's age, height, weight, location of the most painful joints, duration of symptoms and grade of OA were recorded. […]

The test system of data set [5] is postmenopausal women with mild to moderate osteoarthritis. Particulars: cited from earlier work.
For data set [6], the system named is leukocytes isolated from the blood of these patients. Particulars: seven days after NaPPS administration, cited from earlier work.
The subject of data set [7] is patients with symptomatic knee OA. Particulars: NaPPS 3 mg/kg, 4 weekly IM injections, cited from earlier work.
Data set [8] relates to elderly subjects with high blood viscosity and filterability. Particulars: 15 elderly subjects; IM 50 mg NaPPS twice daily for a week; cited from earlier work.
The test system of data set [9] is Japanese patients with mild knee OA. Particulars: weekly subcutaneous 2 mg/kg NaPPS over 6 weeks; assessed to 52 weeks; cited from earlier work.
Data set [10] relates to patients with bone marrow lesions (oedema) diagnosed by MRI. Particulars: PPS administered systemically (IM or SC); cited from earlier work.
For data set [11] the following is noted: single oral dose [3H]PPS with 300 or 450 mg un-labelled PPS; healthy female subjects; cited from earlier work.
[12] abbreviates: Pentabrex 350 mg or celecoxib 175 mg daily for 6 weeks.
Setting [13] is: Pentabrex n = 5, celecoxib n = 9, daily for 6 weeks.
Setting [14] is: Pentabrex n = 5, celecoxib n = 4, daily for 6 weeks.

Here are results for four compounds from US11911413B2, “Methods and compositions for the treatment of pain and/or inflammation” (Proteobioactives Pty Limited, priority 2018, dated 2024).

With `Cc1ccc(-c2cc(C(F)(F)F)nn2-c2ccc(S(N)(=O)=O)cc2)cc1` [Celecoxib, 4-[5-(4-methylphenyl)-3-(trifluoromethyl)pyrazol-1-yl] benzene sulfonamide], the “thrombotic or embolic events associated with the drug” value in [1] is 102 cases. The results for the “Negative response, % of patients” value in data set [2], in [3] (setting [12]) and in [4] (setting [12]) were 38.46%, 23.33% and 75%, respectively. Moreover, the “Negative response, number of patients” value is 5 in [2], 2 in data set [3] (setting [13]) and 3 in data set [4] (setting [14]). The “Positive response, % of patients” value is 61.54% in data set [2], 77.77% in data set [3] (setting [12]) and 25% in data set [4] (setting [12]). The entries for the “Positive response, number of patients” value in [2], in [3] (setting [13]) and in data set [4] (setting [14]) were 8, 7 and 1, respectively.
For the compound “[2R,3R,4S,5R)-2-hydroxy-5-[(2S,3R,4S,5R)-5-hydroxy-3,4-disulfo-oxyoxan-2-yl]oxy-3-sulfooxyoxan-4-yl] hydrogen sulfate [NaPPS]”, in data set [5] (3 mg/kg NaPPS IM, 24 hours after administration), the “peripheral blood mononuclear cell procoagulant activity (MPA)” value is listed as “significantly reduced to within the normal range”. Besides, in [5] (3 mg/kg NaPPS IM, between 2 and 4 hours after administration), the “Plasma concentrations of lipoprotein lipase, hepatolipase, and superoxide dismutase” value is “significantly elevated”. Further, in data set [5] (4 weekly IM injections of 3 mg/kg, for up to 12 weeks after the last injection), the “patients reporting significant clinical improvement of their symptoms” value is listed as 11. Besides, the “concentrations of arachidonic acid-derived lipoxygenase (LOX) metabolites released from the cells” value in [6] (compared to leukocytes collected before) was “significantly decreased”. Further, in data set [6] (non-stimulated leukocytes), the “prostaglandin metabolites generated by the COX pathways” value is listed as “increased”. The “pain on walking and other physical activities, such as stair climbing” value in data set [7] is on record as “significantly improved”. Besides, the “joint pain at rest relative to placebo controls” value in data set [7] (maintained for 20 weeks after cessation) was “significantly improvement”. Moreover, the “blood viscosity and filterability” value in [8] is given as “significant reduction”. The “joint swelling, knee flexion, pain while walking and stair climbing” value in data set [9] is given as “improved significantly”. Besides, the “bone marrow lesions (oedema) and accompanying pain” value in data set [10] was “resolved the bone marrow lesions (oedema) and accompanying pain”. In data set [11], the “administered dose excreted in the faeces as intact PPS” value was 84% and the “administered dose excreted in urine in a depolymerized form” value is given as 6%.
For the compound `CCc1cccc2c3c([nH]c12)C(CC)(CC(=O)O)OCC3` (stereo not drawn) [etodolac], the “thrombotic or embolic events associated with the drug” value in data set [1] is on record as 22 cases.
In the case of `CS(=O)(=O)c1ccc(C2=C(c3ccccc3)C(=O)OC2)cc1` [rofecoxib, 4-(4-methylsulfonylphenyl)-3-phenyl-5H-furan-2-one], in [1], the “thrombotic or embolic events associated with the drug” value is recorded as 99 cases.
